The test system of one assay is MCF10A. Kind of assay: Western blot of PERK/eIF2α/ATF4/ATF3 axis with recombinant TGFβ1. As to conditions: 1400 W 4 mM co-treatment with recombinant TGFβ1 for 24 hrs. The assay is classed as cell-based. An excerpt:
FIG. 3A, FIG. 3B, FIG. 3C, FIG. 3D, FIG. 3E, FIG. 3F, FIG. 3G, FIG. 311, FIG. 3I, and FIG. 3J show iNOS knockdown impairs tumorigenicity and EMT by a dual impact on HIF1α and endoplasmic reticulum (ER) stress/TGFβ/AFT4/ATF3 crosstalk. Proliferation (FIG. 3A), migration (FIG. 3B), and self-renewal capacity (primary and secondary mammospheres) (FIG. 3C) in MDA-MB-231 cells transfected with two different NOS2-directed shRNAs (shRNA1, shRNA2) compared with empty vector (shRNA-EV). […] Selective iNOS inhibition reduced hypoxia (HIF1α), ER stress markers (IRE1α, ATF4) (FIG. 3F), phospho-Smad2/3, Smad2/3 and mature TGFβ protein levels in MDA-MB-231 and SUM159 cells (FIG. 3G). FIG. 3H: Recombinant TGFβ1 (10 ng/mL for 24 hrs) activates the PERK/eIF2α/ATF4/ATF3 axis in MCF10A. […] FIG. 3J: Selective iNOS inhibition is postulated to impair EMT and tumor cell migration by an impact on HIF1α, ER stress (IRE1α/XBP1) and the crosstalk between ATF4, ATF3 and TGFβ. Results were normalized to empty vector. Data are presented as mean±SEM. ****p<0.0001, ***p<0.001, **p<0.01. One-way ANOVA and Bonferroni's post-hoc test;
Western Blot. Cells were cultured at a density of 2.5×10^5 cells/well in 6-well plates with or without iNOS inhibitors for 96 hrs. Cells were resuspended in 1× lysis buffer (Cell Signaling Technology, Inc.) and 1× protease/phosphatase inhibitor cocktail (Thermo Scientific). […]
In general terms: In western blotting, separated proteins are transferred to a membrane and probed.

In assay [1] the test system is MDA-MB-231. The assay can be described thus: Western blot / RT-PCR of EMT, hypoxia, ER stress and TGFβ markers. The assay is classed as cell-based, human. The method, then: (§1) Protein levels of iNOS and EMT-inducing factors were determined by Western blot with antibodies against: iNOS (N-20) and Twist1 (L-21) (Santa Cruz Biotechnology), Snail (C15D3), Slug (C19G7) and TCF8/Zeb1 (D80D3) (Cell Signaling) (1:1000 dilution). β-actin (Cell Signaling; 1:2000) was used as loading control;
(§2) Western Blot. […] Cells were resuspended in 1× lysis buffer (Cell Signaling Technology, Inc.) and 1× protease/phosphatase inhibitor cocktail (Thermo Scientific). Samples (30 μg protein) were boiled in 4×LDS sample buffer (Thermo Scientific) containing […] (Sigma-Aldrich) and subjected to SDS-PAGE electrophoresis in 4-20% polyacrylamide gels (Bio-Rad, Hercules, Calif., USA). Proteins were transferred onto nitrocellulose membranes (Bio-Rad) and non-specific binding was avoided incubating with 5% non-fat dry milk in 1×Tris-buffered saline (TBS) for 1 hr. Membranes were incubated overnight at 4° C. with primary antibodies (1:1,000 dilution; anti-β-Actin, 1:2,000 dilution). After washing and incubation with the appropriate secondary antibodies for 1 hr (1:2,000 dilution), membranes were washed and incubated with enhanced chemiluminescence substrate. Protein bands were developed in autoradiography films (Denville Scientific, Inc., Holliston, Mass., USA).
RT-PCR Analysis of Spliced XBP1. […] The PCR amplification (50 ng cDNA) was done with […] Taq DNA polymerase (native, 5 U/μL), 0.2 mM dNTP, 1.5 mM MgCl2 (50 mM) and 0.5 μM of each primer.

Assay [2] concerns SUM159. Kind of assay: Cell migration, wound healing assay. The assay is classed as cell-based, human. The following applies: 96 hrs treatment, wound healing 12 hrs. The method, then: (§3) FIG. 18A and FIG. 18B show the migration of MDA-MB-231 and SUM159 cells was assessed by “wound healing” assay. Briefly, 3×10^5 cells were plated in a 6-well plate until confluence in growth medium. […] A “wound” was then created in the cell monolayer. Images were taken at 0 and 12 hrs. Wound-healing capacity was determined with the software Image J. Data were replicated in three independent experiments. Results were normalized to vehicle;
(§4) Cell migration capacity. Cell migration was determined with a “wound healing assay.” Briefly, 3×10^5 cells/well were grown in 6-well plates until confluence. […] To avoid an impact on cell proliferation, low serum medium was changed by regular growth medium in presence of inhibitors for 24 hrs (96 hrs total). A “wound” was then created in the cell monolayer with a 100-4, pipette tip. Images were taken at 0 hrs, and cells were allowed to heal the wound for 12 hrs. Wound-healing capacity was determined with the software Image J. Data were replicated in three independent experiments.

Assay [3] concerns MDA-MB-231. Kind of assay: Cell migration, wound healing assay. As to conditions: 96 hrs treatment, wound healing 12 hrs. The assay is classed as cell-based, human. The method, then: as §3, §4
The next assay relates to HRT-18 cells. The following applies: daily treatment with 500 μM; cited from earlier work.
Assay [4] concerns SUM159. The assay can be described thus: Western blot of EMT, hypoxia, ER stress and TGFβ markers. The assay is classed as cell-based, human. As for the experimental part: as §1, §2
Assay [5] deals with adenoid cystic carcinoma of the oral cavity. As to conditions: mouse, in vivo; cited from earlier work.
[6] abbreviates: millimolar and micromolar concentrations, 96 hrs.

As to `CC(=N)NCc1cccc(CN)c1` [1400 W, N-[[3-(aminomethyl)phenyl]methyl]-ethanimidamide], the “stimulation of ATF4 and ATF3 protein levels by TGFβ1” value in the assay with MCF10A was “inhibit the stimulation of ATF4 and ATF3 protein levels”. The “ER stress markers IRE1α/splicedXBP1 and ATF4” value in the assay with MDA-MB-231 [1] (96 hrs) was “dose-dependent decrease”. For the same compound, the “hypoxia (HIF1α)” value with MDA-MB-231 [1] (96 hrs) and in the assay on SUM159 [4] (96 hrs) was “dose-dependent decrease” each time. The “TGFβ signaling (phospho-Smad2/3, Smad2/3 and mature TGFβ)” value is on record as “inhibit TGFβ signaling” in the assay with MDA-MB-231 [1] (absence and presence of recombinant TGFβ1 (10 ng/mL for 72 hrs)); “inhibit TGFβ signaling” with SUM159 [4] (absence of recombinant TGFβ1). For the same compound, the “protein levels of the EMT transcription factors Snail, Slug, and Twist1” value in the assay on MDA-MB-231 [1] (setting [6]) and in the assay on SUM159 [4] (setting [6]) was “reduction in protein levels” each time. In addition, the Zeb1 protein levels entry with MDA-MB-231 [1] (millimolar concentrations) and in the assay with SUM159 [4] (millimolar concentrations) was “decreased” each time. For the same compound, the migration entry with SUM159 [2] (micromolar range), with SUM159 [2] (millimolar range), in the assay on MDA-MB-231 [3] (micromolar range) and in the assay with MDA-MB-231 [3] (millimolar range) was “marked dose-dependent decrease in migration” throughout. Also, in the assay on HRT-18 cells, the invasiveness entry is “substantially decreased”. In the assay on SUM159 [4] (splicedXBP1 was not detected in SUM159 cells), the “ER stress markers IRE1α and ATF4” value is reported as “dose-dependent decrease”. Further, in assay [5], the spontaneous lung metastasis entry was “markedly inhibit spontaneous lung metastasis”.

Source of the values: patent US11357850B2, “Methods for treating breast cancer using INOS-inhibitory compositions” (The Methodist Hospital, priority 2014, dated 2022).
